This assay concerns HCT116 MTAP-deleted cell lines. Put plainly: Cell viability assay (CellTiter-Glo, 7 days), HCT116 MTAP-deleted. It is filed as cell-based. As to conditions: Homo sapiens, HCT-116; cell viability assay, HCT116 MTAP-deleted; class symbols; read-out: CC50. Put shortly:
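Luminescent ATP readout (CellTiter-Glo) after 7 days of continuous compound exposure gives the CC50 value. Cells were plated onto pre-dispensed DMSO dilution series of the PRMT5 inhibitors and kept at 37 °C in 5% CO2.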
(ATP-based viability assays read luminescence as a measure of living cells.)

SMILES strings stand for the structures.

Turning to `Cc1ncn2c1c(N)nc1cc(Cl)c(C(=O)N(C)[C@@H]3COc4cc(C(F)(F)F)ccc43)cc12` [Ff-492, (S)-4-amino-7-chloro-N,3-dimethyl-N-(6-(trifluoromethyl)-2,3-dihydrobenzofuran-3-yl)imidazo[1,5-a]quinoxaline-8-carboxamide], the half-maximal cytotoxic concentration (CC50) (commonly the concentration giving 50% cytotoxicity) is under 0.1 µM. For `[2H]C([2H])([2H])c1ncn2c1c(N)nc1cc(F)c(C(=O)N(C)[C@@H]3COc4cc(C(F)(F)F)ccc43)cc12` [Ff-497, (S)-4-amino-7-fluoro-N-methyl-3-(methyl-d3)-N-(6-(trifluoromethyl)-2,3-dihydrobenzofuran-3-yl)imidazo[1,5-a]quinoxaline-8-carboxamide] the value was under 0.1 µM; for `Cc1ncn2c1c(N)nc1cnc(C(=O)N3C[C@H](C)O[C@@H]4Cc5cc(C(F)(F)F)ccc5[C@@H]43)cc12` [Ff-498, (4-amino-3-methylimidazo[1,5-a]pyrido[3,4-e]pyrazin-8-yl)((2S,4aS,9aR)-2-methyl-7-(trifluoromethyl)-2,3,9,9a-tetrahydroindeno[2,1-b][1,4]oxazin-4(4aH)-yl)methanone], under 0.1 µM; for `C[C@@H]1C[C@@H]2Oc3cc(OC(F)(F)F)ccc3[C@@H]2N(C(=O)c2cc3c(cc2F)nc(N)c2cncn23)C1` [Ff-500, (4-amino-7-fluoroimidazo[1,5-a]quinoxalin-8-yl)((3R,4aS,9bS)-3-methyl-7-(trifluoromethoxy)-3,4,4a,9b-tetrahydrobenzofuro[3,2-b]pyridin-1(2H)-yl)methanone], under 0.1 µM. For `CN(C(=O)c1cc2c(cc1F)nc(N)c1cncn12)[C@@H]1COc2cc(C(F)(F)F)c(F)cc21` [Ff-503, (S)-4-amino-7-fluoro-N-(5-fluoro-6-(trifluoromethyl)-2,3-dihydrobenzofuran-3-yl)-N-methylimidazo[1,5-a]quinoxaline-8-carboxamide] the value was under 0.1 µM; for `C#Cc1ccc2c(c1)OC[C@H]2N(C)C(=O)c1cc2c(cc1F)nc(N)c1cncn12` [Ff-506, (S)-4-amino-N-(6-ethynyl-2,3-dihydrobenzofuran-3-yl)-7-fluoro-N-methylimidazo[1,5-a]quinoxaline-8-carboxamide], under 0.1 µM. For `C[C@@H]1C[C@@H]2Oc3cc(OC(F)(F)F)ccc3[C@@H]2N(C(=O)c2cc3c(cn2)nc(N)c2cncn23)C1` [Ff-507, (4-aminoimidazo[1,5-a]pyrido[3,4-e]pyrazin-8-yl)((3R,4aS,9bS)-3-methyl-7-(trifluoromethoxy)-3,4,4a,9b-tetrahydrobenzofuro[3,2-b]pyridin-1(2H)-yl)methanone] the value was under 0.1 µM. With `CN(C(=O)c1cc2c(cc1Cl)nc(N)c1cncn12)[C@@H]1COc2cc(C(C)(F)F)ccc21` [Ff-508, (S)-4-amino-7-chloro-N-(6-(1,1-difluoroethyl)-2,3-dihydrobenzofuran-3-yl)-N-methylimidazo[1,5-a]quinoxaline-8-carboxamide], the 50% cytotoxic concentration (CC50) is under 0.1 µM. For `Cc1ncc2c(N)nc3cnc(C(=O)N(C)[C@@H]4COc5cc(C(F)(F)F)ccc54)cc3n12` [Ff-509, (S)-4-amino-N,1-dimethyl-N-(6-(trifluoromethyl)-2,3-dihydrobenzofuran-3-yl)imidazo[1,5-a]pyrido[3,4-e]pyrazine-8-carboxamide] the value was under 0.1 µM; for `Nc1nc2ccc(C(=O)N3CC[C@H]4C[C@@H]3c3ccc(C(F)(F)F)cc3O4)cc2n2cncc12` [Ff-510, (4-aminoimidazo[1,5-a]quinoxalin-8-yl)((2S,6R)-9-(trifluoromethyl)-3,4-dihydro-2H-2,6-methanobenzo[b][1,5]oxazocin-5(6H)-yl)methanone], under 0.1 µM; for `Nc1nc2cc(F)c(C(=O)N3CC4CCC(O4)C3c3ccc(C(F)(F)F)cn3)cc2n2cncc12` (stereo not shown) [Ff-511, (4-amino-7-fluoroimidazo[1,5-a]quinoxalin-8-yl)(2-(5-(trifluoromethyl)pyridin-2-yl)-8-oxa-3-azabicyclo[3.2.1]octan-3-yl)methanone], 0.1 to 1 µM. On to `Nc1nc2cc(F)c(C(=O)N3CC4CCC(C4)C3c3ccc(C(F)(F)F)cn3)cc2n2cncc12` (stereo not shown) [Ff-512, (4-amino-7-fluoroimidazo[1,5-a]quinoxalin-8-yl)(2-(5-(trifluoromethyl)pyridin-2-yl)-3-azabicyclo[3.2.1]octan-3-yl)methanone], for which the CC50 fell in the range of 0.1 to 1 µM. The result for `CC1(C)CN(C(=O)c2cc3c(cc2F)nc(N)c2cncn23)C(c2ccc(C(F)(F)F)cn2)CO1` (stereo not shown) [Ff-513, (4-amino-7-fluoroimidazo[1,5-a]quinoxalin-8-yl)(2,2-dimethyl-5-(5-(trifluoromethyl)pyridin-2-yl)morpholino)methanone] reads under 0.1 µM; that for `CN(C(=O)c1cc2c(cc1F)nc(N)c1cncn12)[C@@H]1COc2cc(C#CC3(C)CC3)ccc21` [Ff-514, (S)-4-amino-7-fluoro-N-methyl-N-(6-((1-methylcyclopropyl)ethynyl)-2,3-dihydrobenzofuran-3-yl)imidazo[1,5-a]quinoxaline-8-carboxamide], 0.1 to 1 µM. For `CN(C(=O)c1cc2c(cc1F)nc(N)c1cncn12)[C@@H]1COc2cc(C#CC(F)(F)F)ccc21` [Ff-515, (S)-4-amino-7-fluoro-N-methyl-N-(6-(3,3,3-trifluoroprop-1-yn-1-yl)-2,3-dihydrobenzofuran-3-yl)imidazo[1,5-a]quinoxaline-8-carboxamide] the value was 0.1 to 1 µM. For the compound `COC1(C#Cc2ccc3c(c2)OC[C@H]3N(C)C(=O)c2cc3c(cc2F)nc(N)c2cncn23)CCC1` [Ff-517, (S)-4-amino-7-fluoro-N-(6-((1-methoxycyclobutyl)ethynyl)-2,3-dihydrobenzofuran-3-yl)-N-methylimidazo[1,5-a]quinoxaline-8-carboxamide], the CC50 was 0.1 to 1 µM. For `CN(C(=O)c1ccc2nc(N)c3cncn3c2c1)[C@@H]1COc2cc(C#CC3(C)COC3)ccc21` [Ff-518, (S)-4-amino-N-methyl-N-(6-((3-methyloxetan-3-yl)ethynyl)-2,3-dihydrobenzofuran-3-yl)imidazo[1,5-a]quinoxaline-8-carboxamide] the value was under 0.1 µM; for `COC1(C#Cc2ccc3c(c2)OC[C@H]3N(C)C(=O)c2ccc3nc(N)c4cncn4c3c2)CCC1` [Ff-519, (S)-4-amino-N-(6-((1-methoxycyclobutyl)ethynyl)-2,3-dihydrobenzofuran-3-yl)-N-methylimidazo[1,5-a]quinoxaline-8-carboxamide], 0.1 to 1 µM. The result for `CN(C(=O)c1ccc2nc(N)c3cncn3c2c1)[C@@H]1COc2cc(C#CC3(CF)CC3)ccc21` [Ff-520, (S)-4-amino-N-(6-((1-(fluoromethyl)cyclopropyl)ethynyl)-2,3-dihydrobenzofuran-3-yl)-N-methylimidazo[1,5-a]quinoxaline-8-carboxamide] reads 0.1 to 1 µM; that for `CN(C(=O)c1ccc2nc(N)c3cncn3c2c1)[C@@H]1COc2cc(C#CC3(C(F)F)CC3)ccc21` [Ff-521, (S)-4-amino-N-(6-((1-(difluoromethyl)cyclopropyl)ethynyl)-2,3-dihydrobenzofuran-3-yl)-N-methylimidazo[1,5-a]quinoxaline-8-carboxamide], 0.1 to 1 µM. For `CN(C(=O)c1cc2c(cc1F)nc(N)c1cncn12)[C@@H]1COc2cc(C#CC3(C(F)(F)F)CC3)ccc21` [Ff-522, (S)-4-amino-7-fluoro-N-methyl-N-(6-((1-(trifluoromethyl)cyclopropyl)ethynyl)-2,3-dihydrobenzofuran-3-yl)imidazo[1,5-a]quinoxaline-8-carboxamide] the value was 0.1 to 1 µM. On to `CN(C(=O)c1cc2c(cc1F)nc(N)c1cncn12)[C@@H]1COc2cc(C#CC34CCC(CC3)OC4)ccc21` [Ff-523, (S)—N-(6-((2-oxabicyclo[2.2.2]octan-4-yl)ethynyl)-2,3-dihydrobenzofuran-3-yl)-4-amino-7-fluoro-N-methylimidazo[1,5-a]quinoxaline-8-carboxamide], for which the CC50 lay in the range of 0.1 to 1 µM. In the case of `CN(C(=O)c1cc2c(cc1F)nc(N)c1cncn12)[C@@H]1COc2cc(C#CC3C4COCC34)ccc21` (stereo partly drawn) [Ff-524, N-((3S)-6-((3-oxabicyclo[3.1.0]hexan-6-yl)ethynyl)-2,3-dihydrobenzofuran-3-yl)-4-amino-7-fluoro-N-methylimidazo[1,5-a]quinoxaline-8-carboxamide], the CC50 was under 0.1 µM.

Consider `CN(C(=O)c1cc2c(cc1F)nc(N)c1cncn12)[C@@H]1COc2cc(C#CC3CC(F)(F)C3)ccc21` [Ff-525, (S)-4-amino-N-(6-((3,3-difluorocyclobutyl)ethynyl)-2,3-dihydrobenzofuran-3-yl)-7-fluoro-N-methylimidazo[1,5-a]quinoxaline-8-carboxamide], for which the cytotoxic concentration (CC50) lay within 0.1 to 1 µM. The result for `CN(C(=O)c1ccc2nc(N)c3cncn3c2c1)[C@@H]1COc2cc(C#CC(C)(C)S(C)(=O)=O)ccc21` [Ff-526, (S)-4-amino-N-methyl-N-(6-(3-methyl-3-(methylsulfonyl)but-1-yn-1-yl)-2,3-dihydrobenzofuran-3-yl)imidazo[1,5-a]quinoxaline-8-carboxamide] reads 0.1 to 1 µM; that for `CN(C(=O)c1ccc2nc(N)c3cncn3c2c1)[C@@H]1COc2cc(C#CC3(O)COC3)ccc21` [Ff-527, (S)-4-amino-N-(6-((3-hydroxyoxetan-3-yl)ethynyl)-2,3-dihydrobenzofuran-3-yl)-N-methylimidazo[1,5-a]quinoxaline-8-carboxamide], 0.1 to 1 µM. For `CN(C(=O)c1ccc2nc(N)c3cncn3c2c1)[C@@H]1COc2cc(C#CC34CCC(CC3)O4)ccc21` [Ff-528, (S)—N-(6-((7-oxabicyclo[2.2.1]heptan-1-yl)ethynyl)-2,3-dihydrobenzofuran-3-yl)-4-amino-N-methylimidazo[1,5-a]quinoxaline-8-carboxamide] the value was 0.1 to 1 µM; for `CC(=O)N1CC(C#Cc2ccc3c(c2)OC[C@H]3N(C)C(=O)c2ccc3nc(N)c4cncn4c3c2)C1` [Ff-529], 0.1 to 1 µM.

These data come from patent US12448388B2, “PRMT5 inhibitors and uses thereof” (Gilead Sciences, Inc., priority 2023, dated 2025).
